From the supplement of paper PMC10307832

Key:
Assay in all cases: relative viability (nuclei count vs DMSO), 5 days (fraction); higher = more cells survive
NCI-H2023 = system: NCI-H2023
Method in brief: (§1)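 Each reported value is a median over duplicate plates. It expresses relative viability: treated-well nuclei count divided by vehicle-well nuclei count. Lung cancer cell lines in 1536-well plates were dosed by pin tool a day after seeding, alone with one drug or with a fixed anchor-drug dose plus five library-drug doses (not always all listed) in √10 steps, and nuclei were counted after 5 days.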

NCI-H2009 = system: NCI-H2009
Method in brief: as §1

HARA = system: HARA
Method in brief: as §1

COR-L23 = system: COR-L23
Method in brief: as §1

SK-LU-1 = system: SK-LU-1
Method in brief: as §1

NCI-H1793 = system: NCI-H1793
Method in brief: as §1

A-427 = system: A-427
Method in brief: as §1

NCI-H1734 = system: NCI-H1734
Method in brief: as §1

HCC-15 = system: HCC-15
Method in brief: as §1

HCC-366 = system: HCC-366
Method in brief: as §1

HCC-78 = system: HCC-78
Method in brief: as §1

NCI-H2228 = system: NCI-H2228
Method in brief: as §1

NCI-H1993 = system: NCI-H1993
Method in brief: as §1

LC-2-ad = system: LC-2-ad
Method in brief: as §1

NCI-H1944 = system: NCI-H1944
Method in brief: as §1

NCI-H838 = system: NCI-H838
Method in brief: as §1

EMC-BAC-2 = system: EMC-BAC-2
Method in brief: as §1

NCI-H23 = system: NCI-H23
Method in brief: as §1

NCI-H2126 = system: NCI-H2126
Method in brief: as §1

ABC-1 = system: ABC-1
Method in brief: as §1

UMC-11 = system: UMC-11
Method in brief: as §1

NCI-H2405 = system: NCI-H2405
Method in brief: as §1

In the case of `Oc1nc(-c2ccc(C(F)(F)F)cc2)nc2c1CSCC2` [XAV939] + C[C@]1(O)C[C@@H](c2nc(-c3ccc4ccc(-c5ccccc5)nc4c3)c3c(N)nccn32)C1 [Linsitinib] (partner 1 µM), the relative viability (NCI-H2023; first compound 0.08 µM) is reported as 0.699, the relative viability (NCI-H2023; first compound 0.253 µM) is reported as 0.626 and the relative viability (NCI-H2023; first compound 0.8 µM) is reported as 0.625. For the same compound, the relative viability (NCI-H2023; first compound 2.53 µM) was 0.447, the relative viability (NCI-H2009; first compound 0.08 µM) was 1.19 and the relative viability (NCI-H2009; first compound 0.253 µM) was 0.904. For the same compound, the relative viability (NCI-H2009; first compound 0.8 µM) was 1.17, the relative viability (NCI-H2009; first compound 2.53 µM) was 1.09 and the relative viability (HARA; first compound 0.08 µM) was 1.25. It also gave a relative viability (HARA; first compound 0.253 µM) of 0.414, a relative viability (HARA; first compound 0.8 µM) of 0.779 and a relative viability (HARA; first compound 2.53 µM) of 0.956. The relative viability (COR-L23; first compound 0.08 µM) was 0.962, the relative viability (COR-L23; first compound 0.253 µM) was 0.785 and the relative viability (COR-L23; first compound 0.8 µM) was 0.969. The relative viability (COR-L23; first compound 2.53 µM) was 0.809, the relative viability (SK-LU-1; first compound 0.08 µM) was 1.2 and the relative viability (SK-LU-1; first compound 0.253 µM) was 1.03. For the same compound, the relative viability (SK-LU-1; first compound 0.8 µM) was 1.02, the relative viability (SK-LU-1; first compound 2.53 µM) was 1.07 and the relative viability (NCI-H1793; first compound 0.08 µM) was 0.964. It also gave a relative viability (NCI-H1793; first compound 0.253 µM) of 0.709, a relative viability (NCI-H1793; first compound 0.8 µM) of 0.774 and a relative viability (NCI-H1793; first compound 2.53 µM) of 0.719. It also gave a relative viability (A-427; first compound 0.08 µM) of 1.02, a relative viability (A-427; first compound 0.253 µM) of 1.12 and a relative viability (A-427; first compound 0.8 µM) of 1.08. The relative viability (A-427; first compound 2.53 µM) was 1.08, the relative viability (NCI-H1734; first compound 0.08 µM) was 0.841 and the relative viability (NCI-H1734; first compound 0.253 µM) was 0.853. It also gave a relative viability (NCI-H1734; first compound 0.8 µM) of 0.961, a relative viability (NCI-H1734; first compound 2.53 µM) of 0.709 and a relative viability (HCC-15; first compound 0.08 µM) of 0.923. The relative viability (HCC-15; first compound 0.253 µM) was 0.851, the relative viability (HCC-15; first compound 0.8 µM) was 0.859 and the relative viability (HCC-15; first compound 2.53 µM) was 0.848. For the same compound, the relative viability (HCC-366; first compound 0.08 µM) was 0.626, the relative viability (HCC-366; first compound 0.253 µM) was 0.5 and the relative viability (HCC-366; first compound 0.8 µM) was 0.605. For the same compound, the relative viability (HCC-366; first compound 2.53 µM) was 0.596, the relative viability (HCC-78; first compound 0.08 µM) was 0.59 and the relative viability (HCC-78; first compound 0.253 µM) was 0.448. The relative viability (HCC-78; first compound 0.8 µM) was 0.616, the relative viability (HCC-78; first compound 2.53 µM) was 0.443 and the relative viability (NCI-H2228; first compound 0.08 µM) was 0.684. It also gave a relative viability (NCI-H2228; first compound 0.253 µM) of 0.683, a relative viability (NCI-H2228; first compound 0.8 µM) of 0.81 and a relative viability (NCI-H2228; first compound 2.53 µM) of 0.551. The relative viability (NCI-H1993; first compound 0.8 µM) was 0.754, the relative viability (NCI-H1993; first compound 2.53 µM) was 0.719 and the relative viability (LC-2-ad; first compound 0.08 µM) was 0.873. For the same compound, the relative viability (LC-2-ad; first compound 0.253 µM) was 0.797, the relative viability (LC-2-ad; first compound 0.8 µM) was 0.819 and the relative viability (LC-2-ad; first compound 2.53 µM) was 0.73. It also gave a relative viability (NCI-H1944; first compound 0.08 µM) of 1.22, a relative viability (NCI-H1944; first compound 0.253 µM) of 1.12 and a relative viability (NCI-H1944; first compound 0.8 µM) of 1.24. For the same compound, the relative viability (NCI-H1944; first compound 2.53 µM) was 1.26, the relative viability (NCI-H838; first compound 0.08 µM) was 1.02 and the relative viability (NCI-H838; first compound 0.253 µM) was 0.901. The relative viability (NCI-H838; first compound 0.8 µM) was 0.839, the relative viability (NCI-H838; first compound 2.53 µM) was 0.719 and the relative viability (EMC-BAC-2; first compound 0.08 µM) was 0.868. The relative viability (EMC-BAC-2; first compound 0.253 µM) was 0.705, the relative viability (EMC-BAC-2; first compound 0.8 µM) was 0.711 and the relative viability (EMC-BAC-2; first compound 2.53 µM) was 0.511. For the same compound, the relative viability (NCI-H23; first compound 0.08 µM) was 0.612, the relative viability (NCI-H23; first compound 0.253 µM) was 0.559 and the relative viability (NCI-H23; first compound 0.8 µM) was 0.647. For the same compound, the relative viability (NCI-H23; first compound 2.53 µM) was 0.433, the relative viability (NCI-H2126; first compound 0.08 µM) was 0.727 and the relative viability (NCI-H2126; first compound 0.253 µM) was 0.61. For the same compound, the relative viability (NCI-H2126; first compound 0.8 µM) was 0.672, the relative viability (NCI-H2126; first compound 2.53 µM) was 0.642 and the relative viability (ABC-1; first compound 0.08 µM) was 0.915. The relative viability (ABC-1; first compound 0.253 µM) was 0.733, the relative viability (ABC-1; first compound 0.8 µM) was 0.809 and the relative viability (ABC-1; first compound 2.53 µM) was 0.315. For the same compound, the relative viability (UMC-11; first compound 0.08 µM) was 1.25, the relative viability (UMC-11; first compound 0.8 µM) was 0.952 and the relative viability (UMC-11; first compound 2.53 µM) was 0.854. For the same compound, the relative viability (NCI-H2405; first compound 0.08 µM) was 1.01, the relative viability (NCI-H2405; first compound 0.253 µM) was 0.863 and the relative viability (NCI-H2405; first compound 0.8 µM) was 0.96. For the same compound, the relative viability (NCI-H2405; first compound 2.53 µM) was 0.801.
